target: CRBN truncate (318-426) (Homo sapiens (Human), UniProt Q96SW2); assay: Measurement of molecular interactions using surface plasmon resonance (SPR), Biacore T200; type: binding; conditions: 25° C., immobilized CRBN truncate, upper limit of measurement 200 μM
In short: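 C-terminally Avi-tagged CRBN (318-426) captured on a streptavidin SA chip on a Biacore T200. Running buffer 10 mM HEPES pH 7.5, 150 mM NaCl, 1 mM TCEP, 0.005% Tween 20, 2% DMSO; 60 s contact, 120 s dissociation.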

Chain of CRBN truncate (318-426) (Q96SW2 318-426): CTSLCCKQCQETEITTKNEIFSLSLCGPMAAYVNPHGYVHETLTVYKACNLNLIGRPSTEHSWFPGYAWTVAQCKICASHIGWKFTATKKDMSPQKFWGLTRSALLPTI

Compound | Kd [µM]
Cc1sc2c(c1C)C(c1ccc(Cl)cc1)=N[C@@H](CC(=O)NCCCCCCCCNC(=O)c1ccc3nc(N4CC5(CC(=O)N(C6CCC(=O)NC6=O)C5=O)C4)sc3c1)c1nnc(C)n1-2 (stereo partly drawn) [Example 337, N-[8-[[2-[(9S)-7-(4-chlorophenyl)-4,5,13-trimethyl-3-thia-1,8,11,12-tetraazatricyclo[8.3.0.02,6]trideca-2(6),4,7,10,12-pentaen-9-yl]acetyl]amino]octyl]-2-[6-(2,6-dioxopiperidin-3-yl)-5,7-dioxo-2,6-diazaspiro[3.4]octan-2-yl]-1,3-benzothiazole-6-carboxamide] | < 50
NC(=O)c1nn(-c2ccc(C(=O)NCCOCCOCCNC(=O)c3ccc(N4CCC5(CCCC(=O)NC5=O)CC4=O)nc3)cc2)cc1NC(=O)c1coc(-c2ccnc(NCC3CC3)c2)n1 (stereo not drawn) [Example 143, N-[3-Carbamoyl-1-[4-[2-[2-[2-[[6-(4,7,9-trioxo-3,8-diazaspiro [5.6]dodecan-3-yl)pyridine-3-carbonyl]amino]ethoxy]ethoxy]ethylcarbamoyl]phenyl]pyrazol-4-yl]-2-[2-(cyclopropylmethylamino)-4-pyridyl]oxazole-4-carboxamide] | < 50
Cc1ccc(NC(=O)NCc2ccc(C(=O)N3CCC4(CCCC(=O)NC4=O)C3)cc2)cc1Cl (stereo not drawn) [Example 157, 1-(3-Chloro-4-methylphenyl)-3-[[4-(6,8-dioxo-2,7-diazaspiro[4.6]undecane-2-carbonyl)phenyl]methyl]urea] | < 50
CC(C)(C)OC(=O)COc1ccccc1-c1cn(C2CCCC(=O)NC2=O)nn1 (stereo not drawn) [Example 149, tert-Butyl 2-[2-[1-(2,7-dioxoazepan-3-yl)triazol-4-yl]phenoxy]acetate] | ≥ 100
Nc1ccc(N2CCC3(CCCC(=O)NC3=O)C2)c(F)c1 (stereo not drawn) [Example 86, 2-(4-Amino-2-fluorophenyl)-2,7-diazaspiro[4.6]undecane-6,8-dione] | ≥ 100
Cn1c(=O)n(C2CCCC(=O)NC2=O)c(=O)c2ccc(Br)cc21 (stereo not drawn) [Example 261, 7-Bromo-3-(2,7-dioxoazepan-3-yl)-1-methylquinazoline-2,4-dione] | 50 to 100
CC(C)(C)OC(=O)NCCCNc1nccc(N2CC3(CC(=O)N(C4CCC(=O)NC4=O)C3=O)C2)n1 (stereo not drawn) [Example 233] | ≥ 100
O=C1CCCC(N2C(=O)OCc3cc([N+](=O)[O-])ccc32)C(=O)N1 (stereo not drawn) [Example 274, 3-(6-Nitro-2-oxo-4H-3,1-benzoxazin-1-yl) azepane-2,7-dione] | ≥ 100
CC(C)(C)OC(=O)c1ccc(N2CCN(C3CCCC(=O)NC3=O)C(=O)C2)nc1 (stereo not drawn) [Example 30, tert-Butyl 6-[4-(2,7-dioxoazepan-3-yl)-3-oxopiperazin-1-yl]pyridine-3-carboxylate] | ≥ 100
Nc1ccc2nc(N3CCC4(CCCC(=O)NC4=O)C3)sc2c1 (stereo not drawn) [Example 85, 2-(6-Amino-1,3-benzothiazol-2-yl)-2,7-diazaspiro[4.6]undecane-6,8-dione] | 50 to 100
COC(=O)c1cc2c(N3CCC4(CCCC(=O)NC4=O)C3)ncnc2n1C (stereo not drawn) [Example 36, Methyl 4-(6,8-dioxo-2,7-diazaspiro[4.6]undecan-2-yl)-7-methyl-pyrrolo[2,3-d]pyrimidine-6-carboxylate] | < 50
CN(C(=O)c1cccc(-c2ccccc2)c1)C1CCCC(=O)NC1=O (stereo not drawn) [Example 20, N-(2,7-Dioxoazepan-3-yl)-N-methyl-3-phenylbenzamide] | ≥ 100
Cc1sc2c(c1C)C(c1ccc(Cl)cc1)=N[C@@H](CC(=O)NCCCCCCCNC(=O)CN1CCC3(CCCC(=O)NC3=O)CC1=O)c1nnc(C)n1-2 (stereo partly drawn) [Example 345, 2-[(9S)-7-(4-chlorophenyl)-4,5,13-trimethyl-3-thia-1,8,11,12-tetraazatricyclo[8.3.0.02,6]trideca-2(6),4,7,10,12-pentaen-9-yl]-N-[7-[[2-(4,7,9-trioxo-3,8-diazaspiro[5.6]dodecan-3-yl)acetyl]amino]heptyl]acetamide] | 50 to 100

Second part, the compound after the results:

Kd [µM] | Compound
< 50 | NC(=O)c1nn(-c2ccc(C(=O)NCCOCCOCCNC(=O)c3ccnc(N4CCC5(CCCC(=O)NC5=O)C4)c3)cc2)cc1NC(=O)c1coc(-c2ccnc(NCC3CC3)c2)n1 (stereo not drawn) [Example 142, N-[3-Carbamoyl-1-[4-[2-[2-[2-[[2-(6,8-dioxo-2,7-diazaspiro [4.6]undecan-2-yl)pyridine-4-carbonyl]amino]ethoxy]ethoxy]ethylcarbamoyl]phenyl]-pyrazol-4-yl]-2-[2-(cyclopropylmethylamino)-4-pyridyl]oxazole-4-carboxamide]
50 to 100 | Cn1c(=O)n([C@@H]2CCCC(=O)NC2=O)c2cccc(I)c21 (single isomer, unassigned) [Example 211, 3-(4-Iodo-3-methyl-2-oxobenzimidazol-1-yl) azepane-2,7-dione]
50 to 100 | Cn1nc(N2CCCC(=O)NC2=O)c2ccc(CCC(=O)OC(C)(C)C)cc21 [Example 291, tert-Butyl 3-[3-(2,4-dioxo-1,3-diazepan-1-yl)-1-methylindazol-6-yl]propanoate]
≥ 100 | COc1ccc2nnn(C3CCCC(=O)NC3=O)c2c1 (stereo not drawn) [Example 254, 3-(6-Methoxybenzotriazol-1-yl)azepane-2,7-dione]
< 50 | COC(=O)c1cc2c(N3CCC4(CCCC(=O)NC4=O)C3)ncnc2s1 (stereo not drawn) [Example 176, Methyl 4-(6,8-dioxo-2,7-diazaspiro[4.6]undecan-2-yl)thieno[2,3-d]pyrimidine-6-carboxylate]
≥ 100 | Cc1cc(N2CCC3(CCCC(=O)NC3=O)C2)ccc1[N+](=O)[O-] (stereo not drawn) [Example 81, 2-(3-Methyl-4-nitrophenyl)-2,7-diazaspiro[4.6]undecane-6,8-dione]
≥ 100 | CC(C)(C)OC(=O)CN1CC2(CC(=O)N(C3CCC(=O)NC3=O)C2=O)C1 (stereo not drawn) [Example 48, tert-Butyl 2-[6-(2,6-dioxopiperidin-3-yl)-5,7-dioxo-2,6-diazaspiro[3.4]octan-2-yl]acetate]
< 50 | Cc1sc2c(c1C)C(c1ccc(Cl)cc1)=N[C@@H](CC(=O)NCCCCCCCCNC(=O)/C=C/c1cccc3c1N(C)C(=O)C3(C)N1C=CCC(=O)NC1=O)c1nnc(C)n1-2 (stereo partly drawn) [Example 348, (E)-N-[8-[[2-[(9S)-7-(4-chlorophenyl)-4,5,13-trimethyl-3-thia-1,8,11,12-tetrazatricyclo[8.3.0.02,6]trideca-2(6),4,7,10,12-pentaen-9-yl]acetyl]amino]octyl]-3-[3-(2,4-dioxo-5H-1,3-diazepin-1-yl)-1,3-dimethyl-2-oxoindolin-7-yl]prop-2-enamide]
< 50 | Cc1sc2c(c1C)C(c1ccc(Cl)cc1)=N[C@@H](CC(=O)NCCCCCCCCNC(=O)CCc1ccc3c(c1)oc(=O)n3C1CCCC(=O)NC1=O)c1nnc(C)n1-2 (stereo partly drawn) [Example 341, N-[8-[[2-[(9S)-7-(4-chlorophenyl)-4,5,13-trimethyl-3-thia-1,8,11,12-tetraazatricyclo[8.3.0.02,6]trideca-2(6),4,7,10,12-pentaen-9-yl]acetyl]amino]octyl]-3-[3-(2,7-dioxoazepan-3-yl)-2-oxo-1,3-benzoxazol-6-yl]propanamide]
50 to 100 | COc1ccc2nc(N3CCC4(CCCC(=O)NC4=O)C3)sc2c1 (stereo not drawn) [Example 187, 2-(6-Methoxy-1,3-benzothiazol-2-yl)-2,7-diazaspiro[4.6]undecane-6,8-dione]
≥ 100 | O=C1CCCC2(CCN(C(=O)c3nc4ccccc4o3)C2)C(=O)N1 (stereo not drawn) [Example 154, 2-(1,3-Benzoxazole-2-carbonyl)-2,7-diazaspiro[4.6]undecane-6,8-dione]
